Laboratory results reported in patent publication US12544387B2, “Methods and compositions for testosterone production” (priority 2023, dated 2026).

What was measured:
[1] = tested on: endogenous testosterone, LH, and FSH production; assay: Example 3: hormone levels after enclomiphene; assay type: in vivo, human; conditions: 6.25 mg enclomiphene; n=1
Protocol: This example investigated the effects of administering a SERM (enclomiphene) on endogenous testosterone, LH, and FSH production.
Hormone levels were measured after administration of 6.25 mg of enclomiphene (see Table 3, n=1).

[2] = Testosterone concentration at time points after 200 mg of testosterone (FIG. 1)
Protocol: FIG. 1 is a phase diagram of the testosterone concentration in a patient at various time points after being administered 200 mg of testosterone.
Hormone levels were measured after co-administration of 200 mg of testosterone and 6.25 mg of enclomiphene for 30 days. Testosterone concentration was measured at +4 hours and +12 hours after administration. […] Testosterone concentration was measured at +4 hours after administration to capture the peak testosterone concentration (cMax) and +12 hours after administration to capture the trough testosterone concentration (cMin) to determine if endogenous testosterone suppression is prevented with the enclomiphene.

SMILES | Sex Hormone Binding Globulin [1] | increase of calculated free testosterone from baseline (114 pg/mL) [1] | time of testosterone peak [2] | time until testosterone is out of the system [2]
CCN(CC)CCOc1ccc(/C(=C(/Cl)c2ccccc2)c2ccccc2)cc1 [enclomiphene] | 20 nmol/L | 73% |  | 
C[C@]12CC[C@H]3[C@@H](CCC4=CC(=O)CC[C@@]43C)[C@@H]1CC[C@@H]2O [testosterone, 17β-hydroxy-4-androsten-3-one] |  |  | 3 to 5 h | ≤ 12 h
